Measured values reported in ChEMBL document CHEMBL5500427, “Discovery of New Phenyltetrazolium Derivatives as Ferroptosis Inhibitors for Treating Ischemic Stroke: An Example Development from Free Radical Scavengers” (J Med Chem, 2024).
Calls of active or inactive are those of the source. The calls are words filed in the database; no cut-off is given here.

Tests used:
[1] = tested on: HT-1080; assay: Anti-ferroptotic activity against Erastin-induced human HT-1080 cells assessed as inhibition of ferroptosis incubated for 72 hrs by CCK-8 assay; type: functional, cell-based
[2] = tested on: HT-1080; assay: Anti-ferroptotic activity against Erastin-induced human HT-1080 cells assessed as inhibition of ferroptosis incubated for 24 hrs by Alamar blue dye based assay; type: functional, cell-based; details: HT-1080, 24 h
[3] = tested on: HT-1080; assay: Anti-ferroptotic activity against Erastin-induced ferroptosis in human HT-1080 cells assessed as inhibition of lipid peroxidation production at 10 uM incubated for 24 hrs by C11-BODIPY 581/591 based flow cytometry relative to control; type: functional; details: HT-1080, 24 h, values are per cent of control
[4] = Cytotoxicity against human H6C7 cells incubated for 2 hrs by CCK-8 assay; type: toxicity, cell-based; details: h6c7, 2 h
[5] = Drug concentration in ICR mouse lung at 1 mg/kg,iv administration measured after 0.5 hrs by LC-MS/MS analysis; type: ADME, organism-based; details: in vivo
[6] = tested on: N2a; assay: Cytoprotective activity against oxygen-glucose deprivation/reoxygenation induced cell injury in mouse N2a cells assessed as upregulation of GPX4 expression at 1 uM incubated for 2 hrs under hypoxia condition and measured after 24 hrs by Western blotting analysis; type: functional, cell-based; details: time 26.0 hrs
[7] = tested on: HT-1080; assay: Anti-ferroptotic activity against Erastin-induced ferroptosis in human HT-1080 cells assessed as inhibition of lipid ROS production at 0.5 uM incubated for 24 hrs by C11-BODIPY 581/591 based flow cytometry relative to control; type: functional
[8] = Cmax in ICR mouse at 1 mg/kg,iv administration measured upto 24 hrs by LC-MS/MS analysis; type: ADME, organism-based; details: in vivo
[9] = Drug concentration in ICR mouse kidney at 1 mg/kg,iv administration measured after 0.5 hrs by LC-MS/MS analysis; type: ADME, organism-based; details: in vivo
[10] = Drug concentration in ICR mouse kidney at 1 mg/kg,iv administration measured after 0.25 hrs by LC-MS/MS analysis; type: ADME, organism-based; details: in vivo
[11] = tested on: Mus musculus; assay: Neuroprotective activity against transient middle cerebral artery occlusion induced ischemia stroke female SPF C57 mouse model assessed as reduction in cerebral edema at 5 mg/kg,iv measured after 24 hrs; type: functional, organism-based
[12] = Drug concentration in ICR mouse lung at 1 mg/kg,iv administration measured after 0.25 hrs by LC-MS/MS analysis; type: ADME, organism-based; details: in vivo
[13] = Apparent permeability of compound at 10 uM incubated for 16 hrs by PAMPA based LC-MS/MS analysis; type: ADME
[14] = tested on: N2a; assay: Cytoprotective activity against oxygen-glucose deprivation/reoxygenation induced cell injury in mouse N2a cells assessed as upregulation of SLC7A11 expression at 1 uM incubated for 2 hrs under hypoxia condition and measured after 24 hrs by Western blotting analysis; type: functional, cell-based; details: time 26.0 hrs
[15] = Drug concentration in ICR mouse kidney at 1 mg/kg,iv administration measured after 0.083 hrs by LC-MS/MS analysis; type: ADME, organism-based; details: in vivo
[16] = Half life in ICR mouse at 1 mg/kg,iv administration measured upto 24 hrs by LC-MS/MS analysis; type: ADME, organism-based; details: in vivo
[17] = Drug concentration in ICR mouse liver at 1 mg/kg,iv administration measured after 1 hrs by LC-MS/MS analysis; type: ADME, organism-based; details: in vivo
[18] = tested on: N2a; assay: Cytoprotective activity against oxygen-glucose deprivation/reoxygenation induced cell injury in mouse N2a cells assessed as increase in cell viability at 1 uM incubated for 2 hrs under hypoxia condition and measured after 24 hrs; type: functional, cell-based; details: time 26.0 hrs
[19] = Drug concentration in ICR mouse brain at 1 mg/kg,iv administration measured after 0.5 hrs by LC-MS/MS analysis; type: ADME, organism-based; details: in vivo
[20] = Drug concentration in ICR mouse brain at 1 mg/kg,iv administration measured after 0.083 hrs by LC-MS/MS analysis; type: ADME, organism-based; details: in vivo
[21] = tested on: Mus musculus; assay: Neuroprotective activity against transient middle cerebral artery occlusion induced ischemia stroke female SPF C57 mouse model assessed as reduction in neurological deficit score at 5 mg/kg,iv measured after 24 hrs; type: functional
[22] = AUC (0 to t) in ICR mouse at 1 mg/kg,iv administration measured upto 24 hrs by LC-MS/MS analysis; type: ADME, organism-based; details: in vivo
[23] = Antioxidant activity assessed as DPPH radical scavenging activity at 0.4 uM incubated for 30 mins by Beckman Coulter analysis relative to control; type: functional
[24] = tested on: Mus musculus; assay: Neuroprotective activity against transient middle cerebral artery occlusion induced ischemia stroke female SPF C57 mouse model assessed as reduction in cerebral infarct volume at 5 mg/kg,iv measured after 24 hrs by TTC staining based analysis relative to control; type: functional; parameters: scale not given: the % may be the effect or the level left
[25] = AUC (0 to infinity) in ICR mouse at 1 mg/kg,iv administration measured upto 24 hrs by LC-MS/MS analysis; type: ADME, organism-based; details: in vivo
[26] = Drug concentration in ICR mouse lung at 1 mg/kg,iv administration measured after 0.083 hrs by LC-MS/MS analysis; type: ADME, organism-based; details: in vivo
[27] = tested on: HT-1080; assay: Anti-ferroptotic activity against Erastin-induced ferroptosis in human HT-1080 cells assessed as inhibition of lipid ROS production at 10 uM incubated for 24 hrs by C11-BODIPY 581/591 based flow cytometry relative to control; type: functional; details: HT-1080, 24 h, values are per cent of control
[28] = Drug concentration in ICR mouse kidney at 1 mg/kg,iv administration measured after 1 hrs by LC-MS/MS analysis; type: ADME, organism-based; details: in vivo
[29] = tested on: Mus musculus; assay: Neuroprotective activity against transient middle cerebral artery occlusion induced ischemia stroke female SPF C57 mouse model assessed as upregulation of SLC7A11 expression at 5 mg/kg,iv measured after 24 hrs by Western blotting analysis; type: functional, organism-based
[30] = tested on: HEK293; assay: Cytotoxicity against human HEK293 cells incubated for 2 hrs by CCK-8 assay; type: toxicity, cell-based; details: hek293, 2 h
[31] = Drug concentration in ICR mouse liver at 1 mg/kg,iv administration measured after 0.083 hrs by LC-MS/MS analysis; type: ADME, organism-based; details: in vivo
[32] = Drug concentration in ICR mouse liver at 1 mg/kg,iv administration measured after 0.5 hrs by LC-MS/MS analysis; type: ADME, organism-based; details: in vivo
[33] = Drug concentration in ICR mouse brain at 1 mg/kg,iv administration measured after 0.25 hrs by LC-MS/MS analysis; type: ADME, organism-based; details: in vivo
[34] = Tmax in ICR mouse at 1 mg/kg,iv administration measured upto 24 hrs by LC-MS/MS analysis; type: ADME, organism-based; details: in vivo
[35] = tested on: Mus musculus; assay: Neuroprotective activity against transient middle cerebral artery occlusion induced ischemia stroke female SPF C57 mouse model assessed as upregulation of GPX expression at 5 mg/kg,iv measured after 24 hrs by Western blotting analysis; type: functional, organism-based
[36] = Drug concentration in ICR mouse liver at 1 mg/kg,iv administration measured after 0.25 hrs by LC-MS/MS analysis; type: ADME, organism-based; details: in vivo
[37] = tested on: Hippocampus; assay: Anti-ferroptotic activity against glutamate-induced rat Hippocampus assessed as inhibition of ferroptosis; type: functional, tissue-based
[38] = tested on: MEF; assay: Anti-ferroptotic activity against tamoxifen induced Gpx4 knockout mouse MEF cells assessed as inhibition of ferroptosis incubated for 72 hrs by AquaBluerTM assay; type: functional, cell-based
[39] = Cytotoxicity against human L02 cells incubated for 2 hrs by CCK-8 assay; type: toxicity, cell-based
[40] = Homo sapiens, HT-1080, 72 h, read-out: IC50

Cn1nnc(-c2cc(N)c(NC3CCCCC3)cc2Cl)n1
IC50 [1, 40]: 17 nM

Cn1nnc(-c2ccc(NC3CCCCC3)c(N)c2)n1
IC50 [1, 40]: 30 nM

Cc1c(-c2nnn(C)n2)ccc(NC2CCCCC2)c1N
IC50 [1, 40]: 44 nM

Cn1nnc(-c2ccc(O)c(NC3CCCCC3)c2)n1
IC50 [1, 40]: > 1000 nM

COc1cc(NC2CCCCC2)c(N)cc1-c1nnn(C)n1
IC50 [1, 40]: 801 nM

CCOC(=O)c1ccc(NC2CCCCC2)c(NCc2ccccc2)c1
IC50 [2]: 6 nM

CN(c1ccc(-c2nnn(C)n2)cc1)C1CCCCC1
IC50 [1, 40]: > 10000 nM

Cn1nnc(-c2ccc(Nc3cccnc3)c(NC3CCCCC3)c2)n1
IC50 [1, 40]: 186 nM

O=C1C[C@@H](c2ccc(O)c(O)c2)Oc2cc(O[C@@H]3O[C@H](CO)[C@@H](O)[C@H](O)[C@H]3O)cc(O)c21
IC50 [1, 40]: 10000 nM

Cn1nnc(-c2ccc(NC3CCCCC3)cc2)n1
response, % of control at 10 µM [3]: 5.96%
IC50 [1, 40]: 122 nM

N#CCn1nnc(-c2ccc(NC3CCCCC3)cc2)n1
IC50 [1, 40]: 8120 nM

Cn1nnc(-c2cnc(NC3CCCCC3)s2)n1
IC50 [1, 40]: > 1000 nM

c1cc(-c2nn[nH]n2)ccc1NC1CCCCC1
IC50 [1, 40]: > 10000 nM

Cn1nnc(-c2ccc(N)c(NC3CCCCC3)c2)n1
Activity [4]: Toxic
Ct [5]: 0.1 mg/kg
Activity [6]: Active
inhibition at 0.5 µM [7]: 0.3%
Cmax [8]: 367 ng/mL
Ct [9]: 0.12 mg/kg
Ct [10]: 0.38 mg/kg
Activity [11]: Active
Ct [12]: 0.19 mg/kg
Papp at 16 h, 10 µM [13]: 3.89 ×10⁻⁶ cm/s
Activity [14]: Active
Ct [15]: 0.41 mg/kg
half-life [16]: 6 min
Ct [17]: 0.02 mg/kg
Activity [18]: Active
Ct [19]: 0.02 mg/kg
Ct [20]: 0.09 mg/kg
Activity [21]: 2
AUC(0-t) at 24 h [22]: 91.5 ng·h/mL
inhibition [23]: 41.3%
Activity [24]: 12.03%
AUC(0-inf) [25]: 95.6 ng·h/mL
Ct [26]: 0.37 mg/kg
response, % of control at 10 µM [27]: 0.57%
Ct [28]: 0.03 mg/kg
Activity [29]: Active
Activity [30]: Toxic
Ct [31]: 0.32 mg/kg
Ct [32]: 0.09 mg/kg
Ct [33]: 0.04 mg/kg
Tmax [34]: 4.8 min
Activity [35]: Active
Ct [36]: 0.24 mg/kg
IC50 [1, 40]: 22 nM

O=S1(=O)CCN(Cc2cc(NC3CCOCC3)c3[nH]c(-c4ccccc4)cc3c2)CC1
IC50 [1, 40]: 6000 nM

Cn1nnc(-c2ccc(NC3CCCCC3)cc2Cl)n1
IC50 [1, 40]: > 1000 nM

Cn1nnc(-c2ccc(NC3CCCCC3)cc2N)n1
IC50 [1, 40]: > 1000 nM

Cn1nnc(-c2ccc(NC3CCCCC3)cc2F)n1
IC50 [1, 40]: > 1000 nM

Cn1nnc(-c2ccc(NC3CCCCC3)cc2C(F)(F)F)n1
IC50 [1, 40]: > 1000 nM

Cn1nnc(-c2ccc(NC3CCCCC3)c(NCc3ccccc3)c2)n1
IC50 [1, 40]: > 1000 nM

Cn1nnc(-c2cccc(NC3CCCCC3)c2N)n1
IC50 [1, 40]: > 1000 nM

CCn1nnc(-c2ccc(NC3CCCCC3)cc2)n1
IC50 [1, 40]: 8510 nM

CCOC(=O)c1ccc(NC2CCCCC2)c(N)c1
Activity [6]: Active
Papp at 16 h, 10 µM [13]: 6.76 ×10⁻⁶ cm/s
IC50 [37]: 90 nM
Activity [14]: Active
response, % of control at 10 µM [3]: 0.58%
inhibition [23]: inactive
Activity [24]: 9.98%
response, % of control at 10 µM [27]: 2.29%
IC50 [1, 40]: 60 nM

COc1ccc(Nc2ccc(-c3nnn(C)n3)cc2NC2CCCCC2)cn1
IC50 [1, 40]: 75 nM

Cc1cc(NC2CCCCC2)ccc1-c1nnn(C)n1
IC50 [1, 40]: 990 nM

COc1ccc(Nc2ccc(-c3nnn(C)n3)cc2NC2CCCCC2)cc1
IC50 [1, 40]: 81 nM

Cn1nnc(-c2c(F)cc(NC3CCCCC3)cc2F)n1
IC50 [1, 40]: > 1000 nM

CNc1ccc(-c2nnn(C)n2)cc1
IC50 [1, 40]: 8220 nM

Cn1nnc(-c2ccc(NC3CCCCC3)c(NCc3ccncc3)c2)n1
IC50 [1, 40]: > 1000 nM

Cc1cc(NC2CCCCC2)c(N)cc1-c1nnn(C)n1
IC50 [1, 40]: 71 nM

FC(F)(F)Cn1nnc(-c2ccc(NC3CCCCC3)cc2)n1
IC50 [1, 40]: > 10000 nM

Clc1cccc(CNC2=Nc3ccccc3NC23CCNCC3)c1
IC50 [38]: 22 nM

Oc1cc(O)cc(/C=C/c2ccc(O)cc2O)c1 [OXYRESVERATROL]
IC50 ([1]; ht-1080): Not Active

O=C1c2c(O)cc(O)cc2O[C@H](c2ccc(O)c(O)c2)[C@H]1O [(+)-TAXIFOLIN]
IC50 [1, 40]: > 10000 nM

Cn1nnc(-c2ccc(NC3CCCCC3)cn2)n1
IC50 [1, 40]: > 1000 nM

CCCCCCCCNc1ccc(-c2nnn(C)n2)cc1N
IC50 [1, 40]: 497 nM

COc1cc(-c2nnn(C)n2)ccc1NC1CCCCC1
IC50 [1, 40]: > 1000 nM

Cn1nnc(-c2cc(N)c(NC3CCCCC3)cc2F)n1
IC50 at 2 h [39]: 12.3 µM
Activity [18]: Active
inhibition [23]: 35.3%
IC50 [1, 40]: 49 nM
